Some test systems named below: CCRF-CEM; HT-29; K562; LOX IMVI; M14; MDA-MB-231; MDA-MB-435; OVCAR-3; OVCAR-4; OVCAR-8; RPMI-8226; SF-268; SK-MEL-5; SK-OV-3; SNB-19; SNB-75; SR; SW-620; TK-10; UO-31.
Common to all, as to experiment: growth of human tumour cells (NCI), 48 h

The structures appear in SMILES notation.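 Exposure lasted 48 hours, with cells grown in 96-well plates and compounds tested at five concentrations. GI50 = concentration required for 50% inhibition of growth.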 The source made the active and inactive calls. Cut-off read from the data, not from the text of the source: active = GI50 up to about 1.1 µM and inactive = higher.

On to `CC(O)c1cc2c(s1)C(=O)c1sccc1C2=O` (configuration not stated), for which the GI50 in the assay on CCRF-CEM was 0.334 µM (active); with HT-29 it was 0.238 µM (active); with K562, 0.353 µM (active); in the assay with LOX IMVI, 0.0247 µM (active); in the assay on M14 it was 0.0185 µM (active); in the assay on MDA-MB-231 it was 0.172 µM (active). Besides, the GI50 in the assay with MDA-MB-435 was 0.0203 µM (active); in the assay with OVCAR-3 it was 0.187 µM (active); in the assay on OVCAR-4, 0.168 µM (active); with OVCAR-8, 0.191 µM (active); with RPMI-8226, 0.184 µM (active); in the assay with SF-268 it was 0.114 µM (active). Moreover, the GI50 was 0.0164 µM (active) in the assay with SK-MEL-5; 1.49 µM (inactive) in the assay with SK-OV-3; 0.136 µM (active) with SNB-19; 0.0902 µM (active) in the assay with SNB-75; 0.0803 µM (active) in the assay on SR; 0.0453 µM (active) in the assay with SW-620. Also, the results for the GI50 in the assay with TK-10 and in the assay with UO-31 were 0.213 µM (active) and 0.185 µM (active), respectively.

With `N#Cc1c(N)n(C2OC(CO)C(O)C2O)c2ncnc(N)c12` (configuration not stated), the GI50 in the assay on CCRF-CEM was 0.025 µM (active); in the assay on HT-29, 0.0288 µM (active); with K562 it was 0.048 µM (active); with LOX IMVI, 0.0165 µM (active); in the assay on M14 it was 0.0617 µM (active); with MDA-MB-231, 0.0364 µM (active). For the same molecule, the GI50 was 0.0212 µM (active) in the assay with MDA-MB-435; 0.029 µM (active) in the assay on OVCAR-3; 0.049 µM (active) in the assay with OVCAR-4; 0.014 µM (active) in the assay on OVCAR-8; 0.184 µM (active) in the assay on RPMI-8226; 0.0597 µM (active) in the assay on SF-268. Also, the GI50 with SK-MEL-5 is 0.0653 µM (active); in the assay on SK-OV-3, 0.0649 µM (active); with SNB-19, 0.129 µM (active); in the assay with SNB-75, 0.0798 µM (active); with SR it was 0.0147 µM (active); in the assay with SW-620, 0.0228 µM (active). Further, the GI50 is 0.0211 µM (active) with TK-10 and 0.0847 µM (active) in the assay with UO-31.

With `COc1ccc(C/C=C(\C)CCO)cc1`, the GI50 in the assay with CCRF-CEM, with HT-29, with K562, in the assay on LOX IMVI, with M14 and in the assay on MDA-MB-231 was > 100 µM (inactive) in each case. Further, the GI50 with MDA-MB-435 is > 100 µM (inactive); in the assay with OVCAR-3, > 100 µM (inactive); in the assay on OVCAR-4, > 100 µM (inactive); in the assay with OVCAR-8 it was > 100 µM (inactive); in the assay with RPMI-8226 it was 19.7 µM (inactive); in the assay on SF-268 it was > 100 µM (inactive). Further, the GI50 in the assay with SK-MEL-5, in the assay with SK-OV-3, in the assay on SNB-19, in the assay on SNB-75, with SR and in the assay on SW-620 was > 100 µM (inactive) each time. The GI50 in the assay on TK-10 and with UO-31 was > 100 µM (inactive) each time.

For the molecule `COC(=O)CNC(=O)/C=C/[C@H](O[Si](C)(C)C(C)(C)C)[C@H](/C=C/C(=O)NCC(=O)OC)O[Si](C)(C)C(C)(C)C`, the GI50 in the assay with CCRF-CEM, with HT-29, with K562, in the assay on LOX IMVI, in the assay with MDA-MB-231 and with MDA-MB-435 was > 25 µM (inactive) throughout. The GI50 in the assay on OVCAR-3, in the assay with OVCAR-4, in the assay with OVCAR-8, with RPMI-8226, in the assay with SF-268 and in the assay with SK-MEL-5 was > 25 µM (inactive) each time. For the same molecule, the GI50 in the assay with SK-OV-3, in the assay with SNB-19, with SNB-75, in the assay with SR, with SW-620 and in the assay with TK-10 was > 25 µM (inactive) each time. Also, the GI50 with UO-31 is > 25 µM (inactive).

For the molecule `O=c1[nH]c2ccc(C(F)(F)F)cc2nc1C(F)(F)F`, the GI50 in the assay on CCRF-CEM was 11.1 µM (inactive); with HT-29, 29.2 µM (inactive); in the assay on K562 it was 35.7 µM (inactive); in the assay with LOX IMVI, 20.7 µM (inactive); in the assay with M14, 31.9 µM (inactive); with MDA-MB-231, 28.3 µM (inactive). Besides, the GI50 is 31.2 µM (inactive) with MDA-MB-435; 14.9 µM (inactive) in the assay with OVCAR-3; 36.6 µM (inactive) with OVCAR-4; 25.3 µM (inactive) in the assay on OVCAR-8; 30.6 µM (inactive) in the assay with RPMI-8226; 30.8 µM (inactive) in the assay with SF-268. For the same molecule, the GI50 was 17.2 µM (inactive) with SK-MEL-5; 27.1 µM (inactive) in the assay with SK-OV-3; 28 µM (inactive) with SNB-19; 12.1 µM (inactive) in the assay with SNB-75; 39.4 µM (inactive) in the assay on SR; 27.9 µM (inactive) in the assay on TK-10. Also, in the assay with UO-31, the GI50 was 20.7 µM (inactive).

In the case of `Cc1nc(-c2ccccc2)c(C)n2c1nc1ccccc12`, the GI50 in the assay with CCRF-CEM is 30.7 µM (inactive); in the assay on HT-29 it was 20.8 µM (inactive); with K562 it was 35.3 µM (inactive); with LOX IMVI, 30.3 µM (inactive); in the assay on M14, 20.3 µM (inactive); in the assay with MDA-MB-231 it was 31.9 µM (inactive). Further, the GI50 was 24.4 µM (inactive) in the assay on MDA-MB-435; 24.6 µM (inactive) in the assay on OVCAR-3; 17.2 µM (inactive) in the assay on OVCAR-4; 25.9 µM (inactive) in the assay with OVCAR-8; 14.2 µM (inactive) with RPMI-8226; 22.1 µM (inactive) in the assay with SF-268. The GI50 is 20.1 µM (inactive) in the assay with SK-OV-3; 35.6 µM (inactive) in the assay on SNB-19; 26.7 µM (inactive) with SNB-75; 19.1 µM (inactive) with SR; 33 µM (inactive) in the assay on SW-620; 29.4 µM (inactive) in the assay on TK-10. Further, the GI50 with UO-31 was 14.7 µM (inactive).

For the molecule `O=C1c2c(ccc3c2CCCC3)CC12Cc1ccc3c(c1C2=O)CCCC3`, the GI50 with CCRF-CEM, in the assay on HT-29, with K562, in the assay with LOX IMVI, in the assay with M14 and in the assay with MDA-MB-231 was > 100 µM (inactive) throughout. The GI50 in the assay with MDA-MB-435, in the assay on OVCAR-3, in the assay on OVCAR-4, in the assay on OVCAR-8, in the assay with RPMI-8226 and in the assay with SF-268 was > 100 µM (inactive) throughout. Besides, the GI50 in the assay on SK-MEL-5, with SK-OV-3, with SNB-19, in the assay with SNB-75, with SR and with SW-620 was > 100 µM (inactive) each time. Also, the GI50 in the assay on TK-10 and in the assay on UO-31 was > 100 µM (inactive) throughout.

Take `CCC1=C(c2ccc(OC)cc2)CC[C@@]2(CCNC2=O)[C@@H]1C`: the GI50 in the assay with CCRF-CEM was 57.7 µM (inactive); in the assay on HT-29, > 67.6 µM (inactive); in the assay with K562, 26.5 µM (inactive); with LOX IMVI it was > 75 µM (inactive); with M14 it was > 100 µM (inactive); with MDA-MB-231 it was > 100 µM (inactive). Further, the GI50 with MDA-MB-435 was > 61.4 µM (inactive); in the assay with OVCAR-3 it was > 100 µM (inactive); in the assay with OVCAR-4 it was > 100 µM (inactive); in the assay with OVCAR-8, > 100 µM (inactive); in the assay with RPMI-8226, > 46.1 µM (inactive); with SF-268 it was > 100 µM (inactive). For the same molecule, the GI50 in the assay on SK-MEL-5 was 22.1 µM (inactive); with SK-OV-3, > 100 µM (inactive); in the assay with SNB-19, > 100 µM (inactive); in the assay on SNB-75 it was > 73.8 µM (inactive); with SR it was 24.7 µM (inactive); in the assay on SW-620, > 100 µM (inactive). Further, the GI50 was > 100 µM (inactive) with TK-10 and > 96.2 µM (inactive) in the assay on UO-31.

For `C=C(CO)[C@H]1Oc2ccc(C(C)=O)cc2[C@@H]1O`, the GI50 in the assay on CCRF-CEM was > 100 µM (inactive); with HT-29 it was > 100 µM (inactive); with K562, 67.9 µM (inactive); in the assay on LOX IMVI, > 100 µM (inactive); in the assay with M14 it was > 100 µM (inactive); in the assay with MDA-MB-231, > 100 µM (inactive). For the same molecule, the GI50 in the assay on MDA-MB-435 was 36.8 µM (inactive); with OVCAR-3, > 100 µM (inactive); in the assay on OVCAR-4, > 100 µM (inactive); in the assay with OVCAR-8 it was > 100 µM (inactive); in the assay on RPMI-8226, > 100 µM (inactive); in the assay on SF-268 it was > 100 µM (inactive). Moreover, the GI50 in the assay with SK-MEL-5 is > 100 µM (inactive); with SK-OV-3 it was > 100 µM (inactive); in the assay with SNB-19, > 100 µM (inactive); in the assay with SNB-75, 95.1 µM (inactive); in the assay on SR it was > 100 µM (inactive); in the assay with SW-620, > 100 µM (inactive). For the same molecule, the GI50 with TK-10 and in the assay with UO-31 was > 100 µM (inactive) throughout.

Take `CC(=O)c1csc2c1C(=O)c1ccccc1C2=O`: the GI50 in the assay with CCRF-CEM was 1.56 µM (inactive); with HT-29, 2.02 µM (inactive); in the assay on K562, 3.92 µM (inactive); with LOX IMVI, 2.36 µM (inactive); with M14, 1.07 µM (active); in the assay on MDA-MB-231, 6.76 µM (inactive). Moreover, the GI50 in the assay with MDA-MB-435 is 0.9 µM (active); with OVCAR-3, 3.66 µM (inactive); in the assay with OVCAR-4, 6.04 µM (inactive); in the assay on OVCAR-8, 2.51 µM (inactive); in the assay with RPMI-8226, 5.65 µM (inactive); in the assay on SF-268, 2.78 µM (inactive). In addition, the GI50 in the assay with SK-MEL-5 is 0.18 µM (active); with SK-OV-3, 38.1 µM (inactive); with SNB-19, 2.12 µM (inactive); in the assay with SNB-75 it was 1.73 µM (inactive); in the assay on SR it was 3.66 µM (inactive); in the assay with SW-620 it was 2.2 µM (inactive). For the same molecule, the GI50 in the assay with TK-10 is 1.79 µM (inactive); in the assay with UO-31, 2.64 µM (inactive).
